Common to all, as to assay: whole-cell patch-clamp, tsA201 cells
Holding throughout (format): cell-based
(In general: Patch clamp records ionic current or voltage across a cell membrane.)

Test [1] concerns the target T1, TRESK (Homo sapiens, UniProt Q7Z418).
T1 construct: gene KCNK18; wild-type human TRESK (NP_862823.1)
T1 sequence (Q7Z418 1-384): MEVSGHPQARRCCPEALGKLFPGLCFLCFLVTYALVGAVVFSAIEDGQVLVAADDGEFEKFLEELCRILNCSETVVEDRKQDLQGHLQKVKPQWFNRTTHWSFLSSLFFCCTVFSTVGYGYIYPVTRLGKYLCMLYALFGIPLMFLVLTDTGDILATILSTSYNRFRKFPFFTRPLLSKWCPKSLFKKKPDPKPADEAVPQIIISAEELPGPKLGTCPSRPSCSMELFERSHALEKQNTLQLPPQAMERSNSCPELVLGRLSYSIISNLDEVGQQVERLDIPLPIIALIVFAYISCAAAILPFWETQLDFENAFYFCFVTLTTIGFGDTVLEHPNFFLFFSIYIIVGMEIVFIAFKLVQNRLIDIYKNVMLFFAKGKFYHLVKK

The target in test [2] is T2, TREK-1 (Homo sapiens, UniProt O95069).
T2 construct: gene KCNK2; wild-type human TREK-1 (NP_055032.1)
T2 sequence (O95069 1-426): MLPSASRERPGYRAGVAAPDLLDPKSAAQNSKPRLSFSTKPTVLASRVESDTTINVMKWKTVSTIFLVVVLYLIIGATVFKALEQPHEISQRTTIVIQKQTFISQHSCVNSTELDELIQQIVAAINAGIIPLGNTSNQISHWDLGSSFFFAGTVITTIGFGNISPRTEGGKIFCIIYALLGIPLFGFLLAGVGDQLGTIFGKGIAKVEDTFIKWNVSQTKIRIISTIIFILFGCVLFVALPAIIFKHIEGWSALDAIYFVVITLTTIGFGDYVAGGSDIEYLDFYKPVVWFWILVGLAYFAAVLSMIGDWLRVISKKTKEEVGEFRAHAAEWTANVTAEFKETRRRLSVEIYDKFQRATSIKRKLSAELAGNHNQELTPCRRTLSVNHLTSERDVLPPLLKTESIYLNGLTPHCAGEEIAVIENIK

Test [3] deals with T3, TREK-2 (Homo sapiens, UniProt P57789).
T3 construct: gene KCNK10; wild-type human TREK-2 (NP_612190.1)
T3 sequence (P57789 1-538): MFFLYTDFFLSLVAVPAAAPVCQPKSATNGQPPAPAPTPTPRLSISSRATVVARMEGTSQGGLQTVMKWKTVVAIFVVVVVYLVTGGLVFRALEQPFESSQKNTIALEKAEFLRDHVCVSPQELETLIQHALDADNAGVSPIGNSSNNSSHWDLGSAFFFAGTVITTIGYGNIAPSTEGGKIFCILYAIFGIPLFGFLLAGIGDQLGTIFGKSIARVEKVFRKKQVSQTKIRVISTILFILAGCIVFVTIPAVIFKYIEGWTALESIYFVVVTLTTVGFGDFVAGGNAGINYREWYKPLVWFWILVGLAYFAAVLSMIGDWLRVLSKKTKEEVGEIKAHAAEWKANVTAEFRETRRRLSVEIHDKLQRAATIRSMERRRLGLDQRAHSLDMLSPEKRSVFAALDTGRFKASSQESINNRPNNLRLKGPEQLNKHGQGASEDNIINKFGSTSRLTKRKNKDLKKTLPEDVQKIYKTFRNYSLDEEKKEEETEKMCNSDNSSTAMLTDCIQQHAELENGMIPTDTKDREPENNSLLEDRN

The target in test [4] is T2, TREK-1. The source holds these as a separate data set.

Molecules are shown by their SMILES.

For the molecule `Nc1nnc(-c2cc(C(F)(F)F)cc(C(F)(F)F)c2)c(N)n1` [CEN-092, 3,5-diamino-6-(3,5-bistrifluoromethylphenyl)-1,2,4-triazine], the inhibition at 100 µM in test [1] amounted to 43%; in test [2], 21%.
Turning to `Nc1nnc(-c2cccc(Cl)c2Cl)c(N)n1` [lamotrigine], the inhibition at 100 µM in test [3] amounted to 14%; in test [1], 35%; in test [2], 30%.
Turning to `CN1CCN(c2ncc(-c3cc(Cl)cc(Cl)c3Cl)c(N)n2)CC1` [sipatrigine], the inhibition at 100 µM in test [3] amounted to 85%. The molecule also displayed an EC50 in test [4] of 16 µM.

Broadly, the inhibition is the drop in the measured response relative to a control, in per cent. Lower therefore signals a response near the control. The EC50 is the concentration that produces a half-maximal response. Lower therefore signals an effect from little substance.
